From PubChem BioAssay AID1963875 (Molecular Pharmacology Branch, DTP, NCI, 2024)

Tested on: KRAS-mutant PDC complex spheroid viability
Experiment: Anticancer human tumor 186277-243-T-J2-PDC patient-derived colon adenocarcinoma cell line growth inhibition [KRAS2]
Conditions: for IC50: curve of first compound; for viability, T/C: stronger effect = lower value; active means viability on the fitted dose curve at most 10% of control; inactive means the rest
Summary of the method: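 Combination screen of spheroid viability in tumor-cell co-cultures with endothelial (HUVEC) and mesenchymal stem cell stroma. Each agent was tested in half-log dilutions, topping at clinical Cmax or at 10 microM without a known Cmax.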

[1] = second compound 0.1 µM, first compound 0.0316 µM
[2] = second compound 0.316 µM, first compound 0.0316 µM
[3] = second compound 1 µM, first compound 0.0316 µM
[4] = second compound 3.16 µM, first compound 0.0316 µM
[5] = second compound 10 µM, first compound 0.0316 µM
[6] = second compound 0.1 µM, first compound 0.1 µM
[7] = second compound 0.1 µM, first compound 0.316 µM
[8] = second compound 0.1 µM, first compound 1 µM
[9] = second compound 0.1 µM, first compound 3.16 µM
[10] = second compound 0.1 µM, first compound 10 µM
[11] = second compound 0.316 µM, first compound 0.1 µM
[12] = second compound 0.316 µM, first compound 0.316 µM
[13] = second compound 0.316 µM, first compound 1 µM
[14] = second compound 0.316 µM, first compound 3.16 µM
[15] = second compound 0.316 µM, first compound 10 µM
[16] = second compound 1 µM, first compound 0.1 µM
[17] = second compound 1 µM, first compound 0.316 µM
[18] = second compound 1 µM, first compound 1 µM
[19] = second compound 1 µM, first compound 3.16 µM
[20] = second compound 1 µM, first compound 10 µM
[21] = second compound 3.16 µM, first compound 0.1 µM
[22] = second compound 3.16 µM, first compound 0.316 µM
[23] = second compound 3.16 µM, first compound 1 µM
[24] = second compound 3.16 µM, first compound 3.16 µM
[25] = second compound 3.16 µM, first compound 10 µM
[26] = second compound 10 µM, first compound 0.1 µM
[27] = second compound 10 µM, first compound 0.316 µM
[28] = second compound 10 µM, first compound 1 µM
[29] = second compound 10 µM, first compound 3.16 µM
[30] = second compound 10 µM, first compound 10 µM
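Wherever viability, T/C is given: viability read after seven days of compound exposure; 100% = DMSO vehicle-treated spheroids so lower means less viable.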

CC(=O)Nc1cccc(-n2c(=O)n(C3CC3)c(=O)c3c(Nc4ccc(I)cc4F)n(C)c(=O)c(C)c32)c1 + COc1cc2nc(C)nc(NC(C)c3cc(N)cc(C(F)(F)F)c3)c2cc1OC1CCOC1
0.343 nM: IC50 (second compound 0.316 µM)
0.226 nM: IC50 (second compound 3.16 µM)
0.298 nM: IC50 (second compound 1 µM)
0.458 nM: IC50 (second compound 0.1 µM)
active: viability, T/C (second compound 0.1 µM, first compound 0.00316 µM) 4.55% | viability, T/C (second compound 0.1 µM, first compound 0.01 µM) 1.94% | viability, T/C [1] 1.13% | viability, T/C (second compound 0.316 µM, first compound 0.00316 µM) 3.15% | viability, T/C (second compound 0.316 µM, first compound 0.01 µM) 2.07% | viability, T/C [2] 1.01% | viability, T/C (second compound 1 µM, first compound 0.001 µM) 8.75% | viability, T/C (second compound 1 µM, first compound 0.00316 µM) 4.43% | viability, T/C (second compound 1 µM, first compound 0.01 µM) 1.55% | viability, T/C [3] 1.02% | viability, T/C (second compound 3.16 µM, first compound 0.001 µM) 6.24% | viability, T/C (second compound 3.16 µM, first compound 0.00316 µM) 2.83% | viability, T/C (second compound 3.16 µM, first compound 0.01 µM) 1.04% | viability, T/C [4] 0.82% | viability, T/C (second compound 10 µM, first compound 0.000316 µM) 3.04% | viability, T/C (second compound 10 µM, first compound 0.001 µM) 1.39% | viability, T/C (second compound 10 µM, first compound 0.00316 µM) 0.49% | viability, T/C (second compound 10 µM, first compound 0.01 µM) 0.21% | viability, T/C [5] 0.23%
inactive: viability, T/C (second compound 0.1 µM, first compound 0.0001 µM) 116% | viability, T/C (second compound 0.1 µM, first compound 0.000316 µM) 68.2% | viability, T/C (second compound 0.1 µM, first compound 0.001 µM) 11.4% | viability, T/C (second compound 0.316 µM, first compound 0.0001 µM) 108% | viability, T/C (second compound 0.316 µM, first compound 0.000316 µM) 53% | viability, T/C (second compound 0.316 µM, first compound 0.001 µM) 10.2% | viability, T/C (second compound 1 µM, first compound 0.0001 µM) 118% | viability, T/C (second compound 1 µM, first compound 0.000316 µM) 46.3% | viability, T/C (second compound 3.16 µM, first compound 0.0001 µM) 108% | viability, T/C (second compound 3.16 µM, first compound 0.000316 µM) 26% | viability, T/C (second compound 10 µM, first compound 0.0001 µM) 13.9%
< 0.1 nM: IC50 (second compound 10 µM)

COC(=O)c1ccc2c(C(=Nc3ccc(N(C)C(=O)CN4CCN(C)CC4)cc3)c3ccccc3)c(O)[nH]c2c1 + COc1cc2nc(C)nc(NC(C)c3cc(N)cc(C(F)(F)F)c3)c2cc1OC1CCOC1
active: viability, T/C [20] 8.29% | viability, T/C [24] 5.65% | viability, T/C [25] 0.14% | viability, T/C [29] 0.18% | viability, T/C [30] 0.19%
1970 nM: IC50 (second compound 1 µM)
2210 nM: IC50 (second compound 0.316 µM)
1450 nM: IC50 (second compound 3.16 µM)
2190 nM: IC50 (second compound 0.1 µM)
463 nM: IC50 (second compound 10 µM)
inactive: viability, T/C [1] 99% | viability, T/C [6] 108% | viability, T/C [7] 106% | viability, T/C [8] 119% | viability, T/C [9] 22.8% | viability, T/C [10] 13.4% | viability, T/C [2] 87.2% | viability, T/C [11] 102% | viability, T/C [12] 100% | viability, T/C [13] 104% | viability, T/C [14] 28.3% | viability, T/C [15] 10.9% | viability, T/C [3] 95.6% | viability, T/C [16] 98.6% | viability, T/C [17] 106% | viability, T/C [18] 115% | viability, T/C [19] 12.7% | viability, T/C [4] 96.6% | viability, T/C [21] 94% | viability, T/C [22] 114% | viability, T/C [23] 72% | viability, T/C [5] 74.5% | viability, T/C [26] 81.5% | viability, T/C [27] 62.8% | viability, T/C [28] 22.1%

COc1cc(Nc2ncc3c(n2)-c2ccc(Cl)cc2C(c2c(F)cccc2OC)=NC3)ccc1C(=O)O + COc1cc2nc(C)nc(NC(C)c3cc(N)cc(C(F)(F)F)c3)c2cc1OC1CCOC1
inactive: viability, T/C [1] 30.3% | viability, T/C [6] 29% | viability, T/C [7] 26.4% | viability, T/C [8] 29.2% | viability, T/C [9] 38.8% | viability, T/C [10] 38.7% | viability, T/C [2] 26.8% | viability, T/C [11] 27.7% | viability, T/C [12] 26.1% | viability, T/C [13] 27.4% | viability, T/C [14] 33.7% | viability, T/C [15] 36.6% | viability, T/C [3] 26.8% | viability, T/C [16] 24.7% | viability, T/C [17] 23.5% | viability, T/C [18] 25.7% | viability, T/C [19] 31.3% | viability, T/C [20] 34.2% | viability, T/C [4] 22.2% | viability, T/C [21] 22.6% | viability, T/C [22] 22.1% | viability, T/C [23] 20.6% | viability, T/C [24] 24.3% | viability, T/C [25] 22.4% | viability, T/C [5] 14.1% | viability, T/C [26] 17.8% | viability, T/C [27] 10.2% | viability, T/C [28] 7.56%
< 31.6 nM: IC50 (second compound 0.1 µM) | IC50 (second compound 0.316 µM) | IC50 (second compound 1 µM) | IC50 (second compound 3.16 µM) | IC50 (second compound 10 µM)
active: viability, T/C [29] 14% | viability, T/C [30] 7.41%

COc1cc2nccc(Oc3ccc(NC(=O)C4(C(=O)Nc5ccc(F)cc5)CC4)cc3)c2cc1OC + COc1cc2nc(C)nc(NC(C)c3cc(N)cc(C(F)(F)F)c3)c2cc1OC1CCOC1
726 nM: IC50 (second compound 3.16 µM)
779 nM: IC50 (second compound 1 µM)
882 nM: IC50 (second compound 0.1 µM)
866 nM: IC50 (second compound 0.316 µM)
187 nM: IC50 (second compound 10 µM)
inactive: viability, T/C [1] 98.2% | viability, T/C [6] 112% | viability, T/C [7] 114% | viability, T/C [8] 12.5% | viability, T/C [9] 15.8% | viability, T/C [10] 101% | viability, T/C [2] 105% | viability, T/C [11] 102% | viability, T/C [12] 97.8% | viability, T/C [13] 13.9% | viability, T/C [14] 13.5% | viability, T/C [15] 102% | viability, T/C [3] 108% | viability, T/C [16] 108% | viability, T/C [17] 82.2% | viability, T/C [18] 11.3% | viability, T/C [19] 10.7% | viability, T/C [20] 101% | viability, T/C [4] 114% | viability, T/C [21] 114% | viability, T/C [22] 80.7% | viability, T/C [23] 9.28% | viability, T/C [24] 1.53% | viability, T/C [25] 104% | viability, T/C [5] 92.2% | viability, T/C [26] 66.9% | viability, T/C [27] 39.4% | viability, T/C [28] 1.55% | viability, T/C [29] 0.17% | viability, T/C [30] 89%
